Test results taken from patent US20140221460A1, “METHOD FOR IDENTIFYING MODULATORS OF HCV TRANSLATION OR REPLICATION INVOLVING THE NS5B POLYPEPTIDE AND A PSEUDOKNOT” (priority 2011, published 2014).

Assays:
[1] = system: sub-genomic replicon, genotype 1b (Con1b); assay: Sub-genomic replicon assay (luciferase); type: cell-based, hepatitis C virus; settings: FIG. 8
Experimental: This assay uses a sub-genomic replicon analogous to that described by Lohmann (Lohmann et al., 1999). As above, we co-transfect an RNA encoding renilla […] luciferase to allow normalization of transfection levels. In these assays we usually transfect the sub-genomic replicon (and renilla) RNA 24 hours before addition of the oligonucleotides.
In this assay we investigated inhibition of luciferase gene activity encoding by the sub-genomic replicon and the influence of prior transfection of oligonucleotides directed against SL9266 or SL9571. The sub-genomic replicon is a genotype 1b sequences (Con1b) and directly complementary oligonucleotides directed against SL9266 (labelled anti SL9266_C) inhibit replication by ˜70% (see FIG. 8).

[2] = system: translation of hepatitis C virus; assay: Translation assay with bicistronic luciferase reporter, co-transfected with oligonucleotides; type: cell-based; settings: Huh-7.5 cells, added at 1600 nM, normalized to untreated samples
Text: The translation assay uses the bicistronic reporter gene system described in Example 1. In brief, a firefly luciferase reporter gene is under the translational control of the HCV internal ribosome entry site (IRES) as part of the complete 5′ untranslated region of HCV. The luciferase gene is followed by an IRES from an unrelated virus (encephalomyocarditis virus; EMCV) which drives expression of the RNA dependent RNA polymerase (RdRp) of HCV (the NS5B protein) which, in turn, is followed by the HCV 3′ untranslated region (3′ UTR).
All experiments are routinely conducted in human hepatoma cells—Huh-7.5. This is the cell line in which HCV replicates. However, we have also investigated the bicistronic reporter system in HepG2, HeLa and murine cell lines, as well as in cell free translation systems supplemented with Huh-7.5 cell extracts.
The readout of the translation assay is luciferase activity. To control for differences in transfection we co-transfected a separate plasmid encoding renilla luciferase and normalize all firefly results to this.
The translation inhibition assay is typically conducted by co-transfecting RNA generated in vitro from the bicistronic reporter plasmid with oligonucleotides to be tested. Assays for luciferase are routinely conducted four hours post transfection.

[3] = system: genotype 2a JFH-1 hepatitis C virus; assay: Virus production / virus replication assay (HCVcc, NS5A immunofocal staining); type: cell-based; settings: JFH-1 in Huh-7.5 cells, compared to untreated cells, FIG. 9
Experimental: This assay uses the HCVcc system that measures the production of infectious genotype 2a JFH-1 hepatitis C virus as described previously (Wakita et al., 2005). In this assay oligonucleotides directed against RNA sequences or structures are transfected into Huh-7.5 cells and a known amount of virus added 4 hours later. After 24 hours incubation the cell sheet is fixed and virus replication quantified by immunofocal staining for virus antigen (in this instance the NS5A protein). Infected cells are counted using a fluorescence microscope.

Substance: 5′-ACGCTGTGAAAAATGTC-3′ [JFH-1 anti-SL9266 LNA oligonucleotide]
- inhibition of replication (replicon luciferase activity), in words [1]: only partially inhibitory

Substance: 5′-GCACAGCGCAAGTATGTTA-3′ [Randomised LNA oligonucleotide]
- inhibition of translation (maximum) [2]: ~20%
- influence on virus replication, in words [3]: little or no influence

Substance: 5′-GGGCACGAGACAGGCTGTGAT-3′ [Con1b anti-SL9266 LNA oligonucleotide]
- inhibition of replication (replicon luciferase activity) [1]: ~70%
